Laboratory results taken from US20130150430A1, “Methods for Impairing the P53/HDM2 Auto-Regulatory Loop in Multiple Myeloma Development Using mIR-192, mIR-194 and mIR-215” (THE OHIO STATE UNIVERSITY, priority 2011, published 2013).

Tested on: miR-192 and miR-194 in WT TP53 MM cell lines
Assay: qRT-PCR of miRNAs after demethylation agent
Assay type: cell-based, human
Conditions: 10 μM, 3 days, vs DMSO

Q: With Nc1ncn([C@@H]2O[C@H](CO)[C@@H](O)[C@H]2O)c(=O)n1 [Azacytidine] as the compound, how does the “expression of miR-194-2-192 cluster miRNAs” value read?
A: The value was “increased”.
